# Experimental data reported in US12195730B2, “High-throughput screening methods to identify small molecule targets” (A-Alpha Bio, Inc., priority 2020, dated 2025).
# Legend:
# [1] = target: interaction between FKBP12 and the FRB domain of TOR (Homo sapiens, UniProt P42345+P62942); test: AlphaSeq yeast mating assay, effect of small molecule agonists on FKBP12/FRB interaction; details: FIG. 6B; increasing compound concentration correlates with increasing mating efficiency
# [2] = target: T1, interaction of IKZF1 with wild-type CRBN (Homo sapiens, UniProt Q96SW2); test: AlphaSeq assay, effect of thalidomide and analogs on wild-type CRBN/IKZF1 interaction; assay type: cell-based; details: FIG. 7B
# T1 construct: expressed in transfected cells; host or cells: recombinant haploid yeast cells (surface display)
# Description: (§1) FIG. 7A is a schematic illustrating thalidomide, or its analogs, mediating the interaction between CRBN and IKZF1.
# [3] = tested on: interaction of IKZF1 with mutant CRBN; test: AlphaSeq assay, effect of thalidomide and analogs on mutant CRBN/IKZF1 interaction; assay type: cell-based; details: FIG. 7B
# Description: as §1
# interaction between FKBP12 and the FRB domain of TOR, sequence (P62942 whole entry, the tested form may be a part): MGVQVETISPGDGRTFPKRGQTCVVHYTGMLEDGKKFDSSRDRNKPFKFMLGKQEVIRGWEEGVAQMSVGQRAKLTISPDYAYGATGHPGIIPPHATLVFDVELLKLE
# interaction between FKBP12 and the FRB domain of TOR, sequence (P42345 2012-2144 limits assumed): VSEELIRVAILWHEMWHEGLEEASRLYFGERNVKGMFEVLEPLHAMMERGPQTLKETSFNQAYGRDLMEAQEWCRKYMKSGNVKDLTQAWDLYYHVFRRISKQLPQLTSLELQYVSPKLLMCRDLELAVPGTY
# T1 sequence (Q96SW2 whole entry): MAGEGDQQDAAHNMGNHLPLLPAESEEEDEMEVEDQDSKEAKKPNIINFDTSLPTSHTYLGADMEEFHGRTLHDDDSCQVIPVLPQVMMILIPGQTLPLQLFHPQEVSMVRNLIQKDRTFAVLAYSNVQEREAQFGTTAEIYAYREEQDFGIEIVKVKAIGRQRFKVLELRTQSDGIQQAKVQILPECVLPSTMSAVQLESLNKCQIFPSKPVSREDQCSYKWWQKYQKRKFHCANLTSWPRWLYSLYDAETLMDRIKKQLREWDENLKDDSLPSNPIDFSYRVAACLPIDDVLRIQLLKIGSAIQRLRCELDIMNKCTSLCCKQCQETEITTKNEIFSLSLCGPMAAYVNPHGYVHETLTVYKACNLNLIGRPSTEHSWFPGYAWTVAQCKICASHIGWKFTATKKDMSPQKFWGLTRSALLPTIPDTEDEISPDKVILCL
# T1 sequence (Q13422 whole entry partner): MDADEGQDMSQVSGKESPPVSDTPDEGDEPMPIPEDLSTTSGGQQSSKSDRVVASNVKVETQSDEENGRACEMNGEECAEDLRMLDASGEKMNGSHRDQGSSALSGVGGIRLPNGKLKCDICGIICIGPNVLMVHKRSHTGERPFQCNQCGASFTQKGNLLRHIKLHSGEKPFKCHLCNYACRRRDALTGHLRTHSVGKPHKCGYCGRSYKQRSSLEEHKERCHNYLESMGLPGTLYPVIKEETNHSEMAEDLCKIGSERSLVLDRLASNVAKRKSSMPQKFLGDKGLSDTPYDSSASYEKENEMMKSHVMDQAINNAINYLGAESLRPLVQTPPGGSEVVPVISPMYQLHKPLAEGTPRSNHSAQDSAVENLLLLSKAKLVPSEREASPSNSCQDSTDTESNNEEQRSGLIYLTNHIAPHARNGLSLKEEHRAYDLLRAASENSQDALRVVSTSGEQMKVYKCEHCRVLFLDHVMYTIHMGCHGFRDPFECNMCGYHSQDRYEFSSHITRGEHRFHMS
effect on the interaction between FKBP12 and the FRB domain (mating efficiency) [1],effect on the interaction of IKZF1 with wild-type CRBN [2],Structure (SMILES),effect on the interaction of IKZF1 with mutant CRBN [3]
agonistic effect,–,CO[C@H]1C[C@@H]2CC[C@@H](C)[C@@](O)(O2)C(=O)C(=O)N2CCCC[C@H]2C(=O)O[C@H]([C@H](C)C[C@@H]2CC[C@@H](OP(C)(C)=O)[C@H](OC)C2)CC(=O)[C@H](C)/C=C(\C)[C@@H](O)[C@@H](OC)C(=O)[C@H](C)C[C@H](C)/C=C/C=C/C=C/1C [ridaforolimus],–
agonistic effect,–,CO[C@H]1C[C@@H]2CC[C@@H](C)[C@@](O)(O2)C(=O)C(=O)N2CCCC[C@H]2C(=O)O[C@H]([C@H](C)C[C@@H]2CC[C@@H](OCCO)[C@H](OC)C2)CC(=O)[C@H](C)/C=C(\C)[C@@H](O)[C@@H](OC)C(=O)[C@H](C)C[C@H](C)/C=C/C=C/C=C/1C [everolimus],–
–,agonistic effect,O=C1CCC(N2C(=O)c3ccccc3C2=O)C(=O)N1 (stereo not drawn) [thalidomide],not mutant CRBN
–,agonistic effect,Nc1cccc2c1C(=O)N(C1CCC(=O)NC1=O)C2=O (stereo not drawn) [pomalidomide],not mutant CRBN
